From ChEMBL document CHEMBL1201862, “PubChem BioAssay data set” (2004)
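Protocol summary: plate cells (96-well), add compound at 5 concentrations, incubate 48 h, interpolate endpoints linearly. The concentration for 50% growth inhibition is given as GI50.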 Active and inactive are the calls of the source. No stated cut-off is given here; in the data, active = GI50 up to about 1.1 µM and inactive = higher.

Assays:
Assay in all cases: NCI tumour cell line growth inhibition, 48 h
MCF7 = test system: MCF7
NCI/ADR-RES = test system: NCI/ADR-RES
NCI-H23 = test system: NCI-H23
RXF 393 = test system: RXF 393
SF-295 = test system: SF-295
A549 = test system: A549
HOP-92 = test system: HOP-92
SK-MEL-5 = test system: SK-MEL-5
CCRF-CEM = test system: CCRF-CEM
U-251 = test system: U-251
HOP-62 = test system: HOP-62
COLO 205 = test system: COLO 205
HCT-116 = test system: HCT-116
SK-MEL-28 = test system: SK-MEL-28
OVCAR-3 = test system: OVCAR-3
BT-549 = test system: BT-549
SK-MEL-2 = test system: SK-MEL-2
RPMI-8226 = test system: RPMI-8226
HCC 2998 = test system: HCC 2998

Structure (SMILES)	GI50 (MCF7)	GI50 (NCI/ADR-RES)	GI50 (NCI-H23)	GI50 (RXF 393)	GI50 (SF-295)	GI50 (A549)	GI50 (HOP-92)	GI50 (SK-MEL-5)	GI50 (CCRF-CEM)	GI50 (U-251)	GI50 (HOP-62)	GI50 (COLO 205)	GI50 (HCT-116)	GI50 (SK-MEL-28)	GI50 (OVCAR-3)	GI50 (BT-549)	GI50 (SK-MEL-2)	GI50 (RPMI-8226)	GI50 (HCC 2998)
CC(=O)Nc1ccc(Cc2ccc3nc(O)cc(C)c3c2)cc1	81.5 µM (inactive)	> 100 µM (inactive)	> 100 µM (inactive)	35.5 µM (inactive)	29.9 µM (inactive)	> 100 µM (inactive)	> 100 µM (inactive)	> 100 µM (inactive)	> 100 µM (inactive)	30.1 µM (inactive)	33.8 µM (inactive)	57.4 µM (inactive)	83.8 µM (inactive)	> 100 µM (inactive)	> 100 µM (inactive)	> 100 µM (inactive)	22.2 µM (inactive)	17.2 µM (inactive)	
CN1CCCN(C)C1c1cc([N+](=O)[O-])ccc1O	19.8 µM (inactive)	35.6 µM (inactive)	89.1 µM (inactive)	41.4 µM (inactive)	37.3 µM (inactive)	> 100 µM (inactive)	20.2 µM (inactive)	19.7 µM (inactive)	22 µM (inactive)	26.5 µM (inactive)	40.7 µM (inactive)	56.1 µM (inactive)	32.6 µM (inactive)	27.9 µM (inactive)	41.8 µM (inactive)	39.5 µM (inactive)	31 µM (inactive)	31 µM (inactive)	
CN1CCN(CCCBr)CC1	> 100 µM (inactive)	> 100 µM (inactive)	> 100 µM (inactive)	> 100 µM (inactive)	> 100 µM (inactive)	> 100 µM (inactive)	> 100 µM (inactive)	> 100 µM (inactive)	> 100 µM (inactive)	> 100 µM (inactive)	> 100 µM (inactive)	> 100 µM (inactive)	> 100 µM (inactive)	> 100 µM (inactive)	> 100 µM (inactive)	> 100 µM (inactive)	> 100 µM (inactive)	> 100 µM (inactive)	
Cc1ccc(S(=O)(=O)n2ccn3c(=O)cc(C)nc23)cc1	> 10 µM (inactive)	> 10 µM (inactive)	> 10 µM (inactive)	> 10 µM (inactive)	> 10 µM (inactive)	> 10 µM (inactive)	> 10 µM (inactive)	> 10 µM (inactive)	> 10 µM (inactive)	> 10 µM (inactive)	> 10 µM (inactive)	> 10 µM (inactive)	> 10 µM (inactive)	> 10 µM (inactive)	> 10 µM (inactive)	> 10 µM (inactive)	> 10 µM (inactive)	> 10 µM (inactive)	
CCOc1cc(CC[N+](C)(C)C)c2c(ccc3ccc(OC)c(OC)c32)c1OC		> 100 µM (inactive)	> 10 µM (inactive)	> 10 µM (inactive)	> 100 µM (inactive)	> 100 µM (inactive)	> 100 µM (inactive)	63 µM (inactive)		> 100 µM (inactive)		> 100 µM (inactive)	> 100 µM (inactive)	> 100 µM (inactive)	53.3 µM (inactive)	19.4 µM (inactive)		16.8 µM (inactive)	> 100 µM (inactive)
Nc1ccn(C2OC(COP(=O)(O)OCC3OC(n4cc(F)c(=O)[nH]c4=O)CC3O)C(O)C2O)c(=O)n1 (stereo not drawn)		9.23 µM (inactive)	0.314 µM (active)	> 56.8 µM (inactive)	0.0453 µM (active)	0.0244 µM (active)	38 µM (inactive)	0.605 µM (active)	0.0161 µM (active)	1.77 µM (inactive)		4.68 µM (inactive)	0.687 µM (active)	> 25.5 µM (inactive)	> 100 µM (inactive)	> 37.6 µM (inactive)	> 100 µM (inactive)		87.9 µM (inactive)
Cc1ccc(S(=O)(=O)n2cc(/C=C/C#N)c(-c3cn(S(=O)(=O)c4ccc(C)cc4)cc3-c3cn(S(=O)(=O)c4ccc(C)cc4)cc3/C=C/C#N)c2)cc1		> 100 µM (inactive)	87.7 µM (inactive)		44.8 µM (inactive)		43.6 µM (inactive)	> 100 µM (inactive)			> 100 µM (inactive)	58.7 µM (inactive)	> 100 µM (inactive)		> 100 µM (inactive)	> 100 µM (inactive)	> 100 µM (inactive)	17.4 µM (inactive)	
CC(C)(C)OC(=O)N1C(=O)OC[C@@H]2C=C[C@@H]21	> 100 µM (inactive)	> 100 µM (inactive)	> 100 µM (inactive)	> 100 µM (inactive)	> 100 µM (inactive)	> 100 µM (inactive)	> 100 µM (inactive)	> 100 µM (inactive)	> 100 µM (inactive)	> 100 µM (inactive)	> 100 µM (inactive)	> 100 µM (inactive)	> 100 µM (inactive)	> 100 µM (inactive)	> 100 µM (inactive)	> 100 µM (inactive)	> 100 µM (inactive)	> 100 µM (inactive)	
